Experimental data from patent US9216956B2, “Deuterium-enriched 4-hydroxy-5-methoxy-N,1-dimethyl-2-oxo-N-[(4-trifluoro-methyl)phenyl]-1,2-dihydroquinoline-3-carboxamide” (ACTIVE BIOTECH AB, priority 2011, dated 2015).
Converted amounts (≈) assume the structure as drawn. “And” between values parts separate entries of the source, which are not always exact repeats. Identical values can stand only once. Blank lines part the entries; values can stand above or below the compound they belong to.

Legend:
[1] = test system: AhR (Aryl hydrocarbon Receptor) mediated induction of CYP1A1; assay: TV-cell assay: luciferase gene reporter assay for AhR mediated induction of CYP1A1 in TV101L (HepG2) cells; format: cell-based, human; settings: TV-cell assay
Method: (§1) ABR-215050 was tested with respect to its CYP1A inducing capability in vitro in a TV-cell assay. This assay is a luciferase gene reporter assay developed for the measurement of AhR (Aryl hydrocarbon Receptor) mediated induction of CYP1A. Human CYP1A promoters and 5′-flanking sequences were cloned into firefly luciferase expression vectors and stably integrated into the human hepatoma cell line, HepG2 (9). The isolated cell line was renamed TV101L.
(§2) The mechanism for transcription of CYP1A1 involves the binding of the inducer to the Ah receptor followed by a translocation of the ligand-Ah-receptor complex to the nucleus, where it binds to specific enhancer sequences in the 5′-flanking region of the CYP1A1 gene. These sequences are referred to as xenobiotic responsive elements (XREs).
(§3) A luciferase gene reporter assay was used for the measurement of AhR mediated induction of CYP1A1. Human CYP1A1 promoters and 5′-flanking sequences were cloned into firefly luciferase expression vectors and stably integrated into the human hepatoma cell line, HepG2 (8). The isolated cell line was renamed TV101L.
(§4) The cells were seeded in 96 well tissue culture plates 24-48 hours prior to treatment with the test compound. After the addition of ABR-215050 at a concentration of 1, 10 and 100 μM, the cells were further incubated for 12-24 hours. The cells were harvested by the addition of lysis buffer followed by a freezing/thawing cycle. An enzymatic assay was used for the determination of luciferase activity.
(§5) The same assay as used for ABR-215050 was used. The concentrations of ABR-215691 that were used and the results obtained, expressed as fold induction of luciferase expression, are shown in Table 4 and in FIG. 1.

[2] = test system: CYP1A1 (AhR mediated induction); assay: as above; format: cell-based, human; settings: human, TV101L cells, read-out: Fold induction of luciferase expression
Method: as §1, §2, §3, §4, §5

Water solubility = format: physicochemical; settings: for solubility: water, pH 7, aqueous buffer
Description: The water solubility of ABR-215050 and of its metabolites also was investigated. It is a well-known fact that metabolism in general aims to transform compounds to more water soluble entities (10), which mostly decreases toxicity but also facilitates renal elimination. […]

[3] = In vivo pharmacokinetics in rat: plasma levels of parents and amide-N demethyl metabolite after 1:1 mixture
Description: Therefore, the pharmacokinetic characteristics of the amide-N methyl deuterated ABR-215050 (herein below referred to as ABR-215050-dx), wherein the amide-N methyl moiety was tri-deuterated, compared to the non-deuterated parent compound were studied in rat. […] In other words: relative to ABR-215050, the in vivo formation of ABR-215691 was reduced to only 25% when ABR-215050-dx was used.
A deuterated (also referred to as deuterium-enriched) ABR-215050 was synthesized, wherein the amide-N methyl moiety was trideuterated (ABR-215050-dx). This deuterated compound was diluted with non-deuterated ABR-215050 to a molar ratio of 1:1. The 1:1 equivalent molar mixture was administrated to rats in an in vivo experiment. Because of additional 13-carbon labeling in the quinoline scaffold, the formed amide-N demethyl metabolites could be measured selectively by means of HPLC-MS (High performance Liquid Chromatography with Mass Spectrometric detection). In Table 5, the plasma levels of ABR-215050-dx and ABR-215050 (in nM) measured in 4 different rats are shown, as well as the ratio of these two compounds.

CYP1A1 = assay: In vivo CYP1A1 induction in rat, EROD activity of liver microsomes; settings: for CYP1A1 activity (EROD), Mean / mean fold induction of CYP1A1: group mean; for CYP1A1 activity (EROD), Mean: 1 mg/kg perorally days 1-4; for mean fold induction of CYP1A1 / CYP1A1 Fold induction: versus water group; for CYP1A1 activity (EROD) / CYP1A1 Fold induction: individual rat; for CYP1A1 activity (EROD): 1 mg/kg perorally days 1-4, liver microsomes 24 h after final dose, 1 mg/kg
Method: (§6) The in vivo induction of CYP1A1 and CYP1A2 after repeated administration of ABR-215050 and of ABR-215050-dx, respectively, was studied in rat.
(§7) Test preparations B and C and blank preparation A were made as follows: For preparation B, ABR-215050 was dissolved in NaOH and sterile water at a concentration of 0.5 mg/mL. The pH of the solution was adjusted to pH 7.4-8.5. Preparation C was made in the same way, using ABR-215050-dx. Preparation A was a blank containing only water. The preparations were stored in a refrigerator for a maximum of one week before use.
(§8) On arrival at the laboratory, the test animals were 9 weeks old Sprague Dawley male rats having a body weight of 250 g. They were divided into 3 groups and were allowed to acclimatize for at least 7 days before the test. During the whole acclimatization and test period, the animals received water and feed (Labfor R70, form Kimstad, Sweden) ad libitum, and were kept under a 12 hours dark/12 hours light cycle, at a temperature of 20±2° C. and a relative humidity of 50±15%.
(§9) Before administration of any test preparation, the body weight of each animal was measured and the individual dose to be administered to an animal was determined based on the weight of the animal. Administration was performed perorally during 4 days, cf.
(§10) At 24 h after administration of the final dose, the animals were weighed and from each animal a final blood sample was withdrawn for a pharmacokinetic analysis. The animals then were euthanized and from each one the liver was withdrawn, weighed, and immediately frozen in crushed dry ice. The livers then were stored at −70° C. until preparation of microsomes.
(§11) Microsomes were prepared according to the method M-0287 “Preparation of subcellular fractions from animal tissues” and then kept at −70° C. until analysis.
(§12) The total protein concentration of the microsomal fraction was determined according to the method M-0289 “Determination of Protein according to Hartree”.

CYP1A2 = assay: In vivo CYP1A2 induction in rat, MROD activity of liver microsomes
Method: as §6, §7, §8, §9, §10, §11, §12

[4] = phase II, cited from earlier work
[5] = cited from earlier work
LNCaP tumor = assay: Anti-tumor effect on subcutaneous LNCaP-19 tumor in Nude BALB/c mice; format: in vivo, mouse; settings: 10 mg/kg/day via drinking water from day 7
Method: The anti-tumor effect of deuterated ABR-215050 was studied in mouse.
The castration resistant subline LNCaP-19 was previously established from LNCaP cells (12). Cells were maintained as previously described (13). The LNCaP-19 cells were between passage 10 and 23 when used in the experiments. Passage 1 is defined as the first passage in our laboratory. The cells were tested and found free from mycoplasma.
Male athymic Nude BALB/c mice (age 8 weeks) were purchased from Taconic (Lille Skensved, Denmark). For subcutaneous implantation, one million tumor cells suspended in 200 μl Matrigel (BD Bioscience, Bedford, Mass.) were inoculated on the flank of the mice. The tumor size was measured by a caliper once a week throughout the experiment and the tumor take was 75% in the untreated control group (n=12). In the tumor growth experiment, ABR-215050-dx (10 mg/kg/day) was administered via drinking water from day 7. To assure appropriate dose was given with no significant fluctuations, water consumption was monitored for each animal cage during the entire experiment. […] Animals were sacrificed when the average tumor size for the control group reached a volume of 900±100 mm^3 or when the tumor volume for an individual animal reached 1200 mm^3 The results are illustrated in FIG. 7.

Ratio of metabolite plasma levels, Mean ([3]; mean of rats 1-4): 0.26
Reduction of amide-N demethylation, Mean ([3]; mean of rats 1-4): 74.1%
Plasma levels of ABR-215691 from the administered compound, Mean ([3]; mean of rats 1-4 (1-4 h), peroral 2.5 mg/kg): 0.0748 µM
in vivo formation of ABR-215691 relative to ABR-215050 ([3]; rat): 25%
Ratio ABR-215050-dx/ABR-215050 (plasma levels) ([3]; rat No 1, 1 h): 0.97
Ratio of metabolite plasma levels (ABR-215691 from ABR-215050-dx / from ABR-215050) ([3]; rat No 1, 1 h): 0.24
Reduction of amide-N demethylation ([3]; rat No 1, 1 h): 75.8%
Plasma levels of ABR-215691 from the administered compound ([3]; rat No 1, 1 h, peroral 2.5 mg/kg): 0.064 µM
Plasma level ([3]; rat No 1, 1 h, peroral 2.5 mg/kg of each compound (1:1 mixture)): 13.394 µM
Ratio ABR-215050-dx/ABR-215050 (plasma levels) ([3]; rat No 2, 2 h): 0.99
Ratio of metabolite plasma levels (ABR-215691 from ABR-215050-dx / from ABR-215050) ([3]; rat No 2, 2 h): 0.30
Reduction of amide-N demethylation ([3]; rat No 2, 2 h): 70.5%
Plasma levels of ABR-215691 from the administered compound ([3]; rat No 2, 2 h, peroral 2.5 mg/kg): 0.0939 µM
Plasma level ([3]; rat No 2, 2 h, peroral 2.5 mg/kg of each compound (1:1 mixture)): 13.665 µM
Ratio ABR-215050-dx/ABR-215050 (plasma levels) ([3]; rat No 3, 3 h): 0.99
Ratio of metabolite plasma levels (ABR-215691 from ABR-215050-dx / from ABR-215050) ([3]; rat No 3, 3 h): 0.24
Reduction of amide-N demethylation ([3]; rat No 3, 3 h): 75.7%
Plasma levels of ABR-215691 from the administered compound ([3]; rat No 3, 3 h, peroral 2.5 mg/kg): 0.0466 µM
Plasma level ([3]; rat No 3, 3 h, peroral 2.5 mg/kg of each compound (1:1 mixture)): 7.322 µM
Ratio ABR-215050-dx/ABR-215050 (plasma levels) ([3]; rat No 4, 4 h): 1.00
Ratio of metabolite plasma levels (ABR-215691 from ABR-215050-dx / from ABR-215050) ([3]; rat No 4, 4 h): 0.25
Reduction of amide-N demethylation ([3]; rat No 4, 4 h): 74.6%
Plasma levels of ABR-215691 from the administered compound ([3]; rat No 4, 4 h, peroral 2.5 mg/kg): 0.0946 µM
Plasma level ([3]; rat No 4, 4 h, peroral 2.5 mg/kg of each compound (1:1 mixture)): 17.824 µM
reduction of the fold induction of CYP1A1 versus ABR-215050 (CYP1A1; (42-11.5)/42×100%): 73%
CYP1A1 activity (EROD), Mean (CYP1A1): 534 pmol/mg prot/min
mean fold induction of CYP1A1 (CYP1A1): 11.5
CYP1A1 Fold induction (CYP1A1): 12 and 11
mean fold induction of CYP1A2 (CYP1A2; rat, in vivo): 5.5
reduction of the fold induction of CYP1A2 versus ABR-215050 (CYP1A2; rat, in vivo): 68%
CYP1A2 activity (MROD), Mean (CYP1A2; rat, in vivo, 1 mg/kg): 111 pmol/mg prot/min
SMILES: [2H]C([2H])([2H])N(C(=O)c1c(O)c2c(OC)cccc2n(C)c1=O)c1ccc(C(F)(F)F)cc1 [ABR-215050-dx, 4-Hydroxy-5-methoxy-N-deuteriomethyl-1-methyl-2-oxo-N-[(4-trifluoromethyl)phenyl]-1,2-dihydroquinoline-3-carboxamide]
formation of demethylated metabolite compared to non-deuterium labeled ABR-215050 (in words) ([3]; rat): diminished by as much as a factor of four
CYP1A1 activity (EROD) (CYP1A1): 556 pmol/mg prot/min and 511 pmol/mg prot/min
anti-tumor effect (in words) (LNCaP tumor): retains a high therapeutic activity

CYP1A induction (in words) [1]: substantial CYP1A inducing capacity
fold induction at 0.01 µM ([2]; 0.01 μM): 15.1
fold induction at 0.1 µM ([2]; 0.1 μM): 14.9
fold induction at 1 µM ([2]; 12-24 hours): 21.3
water solubility (in words) (Water solubility): extremely low water solubility
solubility (Water solubility): < 0.01 µg/mL
SMILES: COc1cccc2c1c(O)c(C(=O)Nc1ccc(C(F)(F)F)cc1)c(=O)n2C [ABR-215691]

CYP1A induction (in words) [1]: not to induce CYP1A
water solubility (in words) (Water solubility): highly water soluble
SMILES: CN(C(=O)c1c(O)c2c(O)cccc2n(C)c1=O)c1ccc(C(F)(F)F)cc1 [ABR-222097]

Continued, compound first:

SMILES: COc1cccc2c1c(O)c(C(=O)N(C)c1ccc(C(F)(F)F)cc1)c(=O)n2C [ABR-215050, 4-hydroxy-5-methoxy-N,1-dimethyl-2-oxo-N-[(4-trifluoromethyl)phenyl]-1,2-dihydroquinoline-3-carboxamide, reference compound]
CYP1A induction (in words) [1]: did not induce CYP1A
fold induction at 1 µM ([2]; 12-24 hours): 5.2
fold induction at 10 µM ([2]; 10 μM, 12-24 hours): 7.3
fold induction at 100 µM ([2]; 100 μM, 12-24 hours): 11.8
solubility (Water solubility): 500 µg/mL (≈ 1230 µM)
concentration at 1 h ([3]; plasma, oral, rat No 1, 1 h, peroral 2.5 mg/kg of each compound (1:1 mixture), read-out: Plasma level): 13.8 µM
concentration at 2 h ([3]; plasma, oral, rat No 2, 2 h, peroral 2.5 mg/kg of each compound (1:1 mixture), read-out: Plasma level): 13.9 µM
concentration at 3 h ([3]; plasma, oral, rat No 3, 3 h, peroral 2.5 mg/kg of each compound (1:1 mixture), read-out: Plasma level): 7.38 µM
concentration at 4 h ([3]; plasma, oral, rat No 4, 4 h, peroral 2.5 mg/kg of each compound (1:1 mixture), read-out: Plasma level): 17.8 µM
CYP1A1 activity (EROD), Mean (CYP1A1): 1891 pmol/mg prot/min
mean fold induction of CYP1A1 (CYP1A1): 42
CYP1A1 activity (EROD) (CYP1A1): 1342 pmol/mg prot/min and 2440 pmol/mg prot/min
CYP1A1 Fold induction (CYP1A1): 30 and 54
CYP1A2 activity (MROD), Mean (CYP1A2; group mean, 1 mg/kg perorally days 1-4): 334 pmol/mg prot/min
mean fold induction of CYP1A2 (CYP1A2; group mean, versus water group): 17
CYP1A2 activity (MROD) (CYP1A2; individual rat, 1 mg/kg perorally days 1-4, liver microsomes 24 h after final dose, 1 mg/kg): 311 pmol/mg prot/min and 357 pmol/mg prot/min
CYP1A2 Fold induction (CYP1A2; individual rat, versus water group): 16 and 18
tolerability ([4]; patients): generally well tolerated
median progression free survival ([4]; patients, placebo 3.2 months (p=0.0009)): 7.6 months
fraction of patients with disease progression during the six month period ([4]; placebo 66% (p<0.0001)): 31%
steady state plasma levels ([5]; 1-10 mg/kg/day via drinking water): 0.4 to 1 µM
plasma half-life ([5]; in vivo): 3.4 h

SMILES: COc1cccc2[nH]c(=O)c(C(=O)N(C)c3ccc(C(F)(F)F)cc3)c(O)c12 [ABR-219694]
CYP1A induction (in words) [1]: not to induce CYP1A
water solubility (in words) (Water solubility): highly water soluble
